{"source": "patent US20170100345A1", "about": "“WOUND HEALING USING BRAF INHIBITORS” (THE REGENTS OF THE UNIVERSITY OF CALIFORNIA, priority 2014, published 2017)", "key": {"2.5 cm dorsal skin wound": {"system": "2.5 cm dorsal skin wound", "test": "wound-healing assay in C3H mice, wound tensile strength by tensiometer", "type": "in vivo", "protocol": "FIG. 5A is a schematic representation of the wound-healing assay performed in […] mice according to some embodiments.\nIn a controlled wound-healing assay in C3H mice, a 2.5 cm dorsal skin wound was induced and was filled with either vehicle control (DMSO/saline) or a suspension of 2 mM of vemurafenib (obtained by crushing clinical grade pills of this agent) in vehicle. The skin wounds were surgically clipped on day 0 and mice were followed until day 14 (FIGS. 5A-5B). Over this time, the vemurafenib suspension or vehicle control was applied topically every other day to 24 mice in the test group or to 24 mice in the control group, respectively, for a total of seven doses per mouse. On day 14, the mice were euthanized and the skin containing the wound was removed and mounted in 20 mm strips with a horizontal wound sample in each strip. The wound tensile strength (WTS) was analyzed using a tensiometer that stretched the strips and recorded the WTS in gram force (gf)."}, "[1]": {"system": "pERK and Ki67 in BRAF^V600E mutant human melanoma cell line M249", "test": "MAPK signaling and cell proliferation by western blot and phosphoflow cytometry, M249", "type": "cell-based", "conditions": "western blot and phosphoflow (VEM 2 μM)", "description": "(§1) FIG. 2 illustrates that BRAF inhibition induces paradoxical MAPK activation in human keratinocytes leading to increased proliferation. FIG. 2A is a quantitative analysis of proliferation and scratch healing as the percentage relative wound density of cells at different time points in replicate cultures of HEKa in the presence or absence of vemurafenib by automated microscope analyzer. P value <0.0044 by t-test. […] FIG. 2C illustrates fold-change representation of colony quantification of HEKa and M249 cells grown in soft-agar with or without exposure to vemurafenib. […] The co-expression levels of pERK and Ki67 are shown in the middle of the panel, and quantified and represented a fold change on the left.\n(§2) Human epithelial adult keratinocytes (HEKa) cultured in 96-well plates were subject to a scratch assay, where proliferating keratinocytes should regrow and cover the scratch. Replicate cultures with or without the BRAF inhibitor vemurafenib were placed in an incubator with an automated microscope analyzer and the number of nucleated cells in the original scratch was recorded over time. […] Using these cultures, paradoxical MAPK activation and cell proliferation were analyzed by western blot (FIGS. 2F-2G) and quantitative phosphoflow cytometry (FIG. 2H and FIGS. 4A-4B)."}, "[2]": {"system": "pERK and Ki67 in HEKa cells", "test": "paradoxical MAPK activation and cell proliferation by western blot and phosphoflow cytometry, HEKa", "type": "cell-based, human", "conditions": "western blot and phosphoflow (VEM 2 μM)", "description": "as §1, §2"}, "[3]": {"system": "MAPK and wound healing pathway output", "test": "RNASeq gene expression profiling of healing cutaneous wounds", "type": "in vivo, mice", "protocol": "The skin samples obtained from mice treated either with vemurafenib or vehicle were analyzed for changes in MAPK and wound healing pathway output by RNASeq. The gene output of MAPK was compared to published data on the transcripts that were differentially modulated by blocking oncogenic MAPK signaling downstream of mutated BRAF^V600E using BRAF inhibitors, or to a published cutaneous wound healing gene signature."}, "[4]": {"system": "Human epithelial adult keratinocytes (HEKa)", "test": "scratch assay of HEKa, automated microscope analyzer", "type": "cell-based", "conditions": "HEKa with vs without vemurafenib; evident at 6, 8 and 12 hours", "description": "as §1\n(§3) Quantitative analysis of proliferation is represented in FIG. 2A.\nas §2"}, "HEKa": {"system": "HEKa", "test": "three-dimensional soft agar colony assay, HEKa", "type": "cell-based, human", "description": "as §1, §3, §2"}, "[5]": {"system": "skin wounds and their surroundings", "test": "histological analysis (H&E) of healing wounds in mice", "type": "in vivo", "description": "FIG. 6 is a schematic representation of the pathological analysis of wound healing on days 1 (D1), 2 (D2) and 6 (D6) post-treatment. […] Wound-adjacent epidermis undergoes hyperplasia and proliferation and epidermal cells from this process migrate centrally to seal the incised epidermal deficiency. The space of the incision fills initially with fibrin, which is then colonized by fibroblasts, macrophages, polymorphonuclear cells and new capillaries. […] Each bar includes data from 4 samples.\nThe area of the wounds and their surroundings were analyzed histologically by H&E staining by two pathologists and the extent of epidermal hyperplasia on both sides of the healing wounds was measured on days 1, 2 and 6 post-treatment (FIGS. 6A and 6B)."}, "[6]": {"system": "BRAF^V600E mutant melanoma line M249", "test": "three-dimensional soft agar colony assay, M249", "type": "cell-based, human", "conditions": "M249, with vs without exposure", "description": "as §1, §3, §2"}, "[7]": {"system": "Human epithelial adult keratinocytes (HEKa)", "test": "cell proliferation wound-healing assay, 96 well plates with seeder stoppers", "type": "cell-based", "conditions": "24 hours, vs control treated wells", "description": "as §1, §2"}}, "note": "Values joined by “and” are separate entries in the source; they are usually repeats but may differ in a detail not shown here. Equal entries are not always repeated. “Also recorded” adds a separate entry of the source.", "data": [{"smiles": "CCCS(=O)(=O)Nc1ccc(F)c(C(=O)c2c[nH]c3ncc(-c4ccc(Cl)cc4)cc23)c1F", "note": "[vemurafenib]", "values": [{"measurement": "improvement in wound tensile strength (WTS) compared to saline control", "setting": "2.5 cm dorsal skin wound; C3H mice, 2 mM suspension topically every other day, day 14, three independent replicate experiments (#1-3)", "value": "52.6% and 32.9% and 42.8%"}, {"measurement": "improvement in WTS vs. vehicle control", "setting": "2.5 cm dorsal skin wound; separate cutaneous wound-healing assay (Experiment #4), trametinib 1 mg/kg where added", "value": 37, "unit": "%"}, {"measurement": "tensile strength of healing wounds (in words)", "setting": "2.5 cm dorsal skin wound; wound-healing mouse model, topically applied", "value": "improved the tensile strength of healing wounds"}, {"measurement": "cell cycle (Ki67)", "setting": "[1]", "value": "cell cycle arrest"}, {"measurement": "pERK", "setting": "[1]", "value": "decreased pERK"}, {"measurement": "cell cycle (Ki67)", "setting": "[2]", "value": "cell cycle progression"}, {"measurement": "pERK", "setting": "[2]", "value": "paradoxical increase in pERK"}, {"measurement": "BRAF and wound-healing signatures, later course", "setting": "[3]; after day 6, time point not given", "value": "more pronounced decrease"}, {"measurement": "BRAF signature genes", "setting": "[3]; day 2, vs control", "value": "slight increase"}, {"measurement": "wound-healing signature genes", "setting": "[3]; day 2, vs control", "value": "almost no change"}, {"measurement": "BRAF signature genes", "setting": "[3]; day 6, vs control", "value": "enriched significantly"}, {"measurement": "wound-healing signature genes", "setting": "[3]; day 6, vs control", "value": "enriched significantly"}, {"measurement": "covering of the original scratch (proliferation and scratch healing, relative wound density)", "setting": "[4]", "value": "accelerated the proliferation and migration of human keratinocytes; also recorded: statistically significant improvement in the covering of the original scratch"}, {"measurement": "mean spot size of HEKa colonies", "setting": "HEKa; soft agar", "value": "increased significantly"}, {"measurement": "number of HEKa colonies in soft agar", "setting": "HEKa; with vs without exposure", "value": "increased in number"}, {"measurement": "wounds re-epithelialized", "setting": "[5]; by day 6", "value": 100, "unit": "%"}, {"measurement": "extent (length) of epidermal hyperplasia vs other treated groups", "setting": "[5]; day 1 and 2", "value": "epidermal hyperplasia over a greater distance than the other treated groups"}, {"measurement": "wound-adjacent epidermal inflammation", "setting": "[5]; day 1 post-incision", "value": "more extensive"}, {"measurement": "wound-adjacent (peri-lesional) epidermal hyperplasia, photomicrographs", "setting": "[5]; day 2 post-incision", "value": "more extensive"}, {"measurement": "dermal reparative / sub-epidermal fibrosis", "setting": "[5]; day 6", "value": "beginning of sub-epidermal fibrosis"}, {"measurement": "extent (length) of epidermal hyperplasia vs other treated groups", "setting": "[5]; day 6", "value": "less epidermal hyperplasia"}, {"measurement": "skin surface integrity", "setting": "[5]; day 6", "value": "surface integrity was re-established; also recorded: Skin surface integrity re-established in 6 days"}, {"measurement": "healing process / signs of healing or repair (pathologists' assessment)", "setting": "[5]; days 1 to 6", "value": "the healing process is accelerated"}, {"measurement": "onset of re-epithelialization", "setting": "[5]; from day 2", "value": "strong and rapid re-epithelialization starting at day 2"}, {"measurement": "number of M249 colonies in soft agar", "setting": "[6]", "value": "decrease in colonies"}, {"measurement": "covering of the center of the wells by proliferating/migrating keratinocytes", "setting": "[7]", "value": "covered the center of the wells after 24 hours"}]}]}
